# How the values were obtained:
# [1] = tested on: orthotopic PC3pipGFP tumors; test: Detection of orthotopic tumor and lymph node metastases; format: in vivo, mice; details: 100 nmol/kg, 1 h post injection
# Protocol: Orthotopic PC3pipGFP prostate cancer models were established as previously described using green fluorescence protein (GFP) transfected PC3pip cells. Mice bearing orthotopic PC3pipGFP tumors were injected with 100 nmol/kg of PSMA-1-MMAE-IR700. Mice were imaged at 1 h post injection by Maestro using the yellow filter set for PSMA-1-MMAE-IR700 and blue filter set for GFP (excitation 445-490 nm, emission 515 nm longpass). Mice were then euthanized and primary tumor was removed to expose lymph nodes. The mice were imaged again. Resected primary tumor and lymph nodes were snap-frozen in optimal cutting temperature (OCT) compound and sectioned. The slides were subjected to hematoxylin and eosin (H&E) staining, and adjacent set of slides were counter stained with DAPI and observed under Leica DM4000B fluorescence microscope at 10× to visualize DAPI, GFP and PSMA-1-MMAE-IR700. Experiments were repeated in three mice.
# [2] = tested on: PSMA-negative PC3flu cells; test: In vitro cytotoxicity studies (CellTiter 96) with or without 690 nm light, PC3flu; format: cell-based, human
# Protocol: PC3pip and PC3flu cells were plated at 3,000 cells/well in 96-well plates. Twenty-four hours later, drugs (PSMA-1-MMAE-IR700 or PSMA-1-IR700) of different concentrations were added. After incubation at 37° C. in the dark for 24 h, cell viability was determined by CellTiter 96© aqueous one solution cell proliferation assay using absorbance at 490 nm (Promega Biotech, Madison, […]). The concentration required to inhibit 50% of cell growth (IC50) was determined by GraphPad Prism 3.0. To test the cytotoxicity of PSMA-1-MMAE-TR700 with light irradiation, drugs at a final concentration of 5 nM were added to cells and incubated in the dark for 24 h. Cells were then washed 3 times with RMPI 1640 and then irradiated with 690 nm light (L690-66-60, Marubeni America Co, New York, NY). Cells were incubated in the dark for another 24 h. Cell viability was then determined by CellTiter 96© aqueous one solution cell proliferation assay (Promega Biotech, Madison, […]). The coefficient drug interaction (CDI) was calculated as follows: CDI=AB/(A×B), where AB is the ratio of the absorbance of combination treatment groups (PSMA-1-MMAE-IR700 with light irradiation) to the absorbance of control groups; A or B is the absorbance of single treatment group (PSMA-1-MMAE-IR700 without light or PSMA-1-IR700 with light irradiation) to the absorbance of control groups. […]
# [3] = Stability in mouse plasma; format: in vitro ADME
# From the text: (§1) To synthesize PSMA-1-MMAE-IR700 (FIG. 6A), we used a self-immolative cathespsin cleavable Vc linker to conjugate MMAE to PSMA-1-Cys-C6-Lys. IR700 was conjugated to the PSMA-1 ligand through reaction of the Lys amine (—NH2) with NHS ester as no IR700 release is required for light activation. […] Degradation of PSMA-1-MMAE-IR700 led to release of free MMAE.
# [4] = Pharmacokinetic studies based on fluorescence; format: in vivo, mice; details: after 4 h post injection almost all drug was cleared
# From the text: Prostate cancer is highly heterogeneous, which will affect treatment response, drug resistance and clinical outcome. The use of combination therapies with different mechanisms of action will offer potential advantages over a single therapy and it can be an effective way to deal with the ‘heterogeneity’ of cancer cells. […] The use of anticancer drugs is therefore limited by unwanted side effects. To overcome these problems, we have developed a multifunctional molecule named PSMA-1-MMAE-IR700 that combines chemotherapy, PDT, and imaging in a single molecule that is targeted to PSMA. PSMA is over expressed almost exclusively on prostate cancer (FIG. 6A). MMAE was selected as the chemotherapeutic drug because of its high potency, its wide use in antibody drug conjugates, its synergy with PDT and the fact that we have successfully targeted it to PSMA for the treatment of prostate cancer with a greater therapeutic index when compared to a PSMA-targeted antibody drug conjugate using MMAE. IR700 was selected as the photosensitizer due to its good water-solubility, its high fluorescence quantum yield and singlet oxygen yield, its long wavelength absorption (690 nm), and the fact that a cetuximab-IR700 conjugate (RM-1929) has been approved in Japan for local regional treatment of head and neck cancer. […] The fluorescence from IR700 allowed visualization of uptake studies of PSMA-1-MMAE-IR700. […]
# [5] = tested on: PSMA-positive PC3pip cells; test: In vitro uptake studies, Example 2, PC3pip; format: cell-based, human; details: 50 nM
# Protocol: (§2) Enzymatic cleavage study of PSMA-1-MMAE-IR700 was performed as previously described. PSMA-1-MMAE-IR700 was incubated with activated human liver cathespin (Anthens Research and Technology, Anthens, GA) at 37° C. At different incubation time, 40 μL of the solution was placed into tubes loaded with 1 μL of 1 mM E64 protease inhibitor. The mixture was vortexed and then stored at −80° C. for future HPLC analysis. Studies were performed in triplicate. In vitro cellular uptake studies cells were plated on coverslips at about 60-70% confluency. Twenty-four hours later, cells were incubated with 50 nM of PSMA-1-MMAE-IR700. After incubation for various times (15 min, 30 min, 1 h and 4 h), cells were washed twice with cold RPMI 1640, fixed with 4% paraformaldehyde and counterstained with 4′,6-diamidino-2-phenylindole (DAPI). Images were taken using a Leica DM4000B fluorescence microscope (Leica Biosystems, Buffalo Gove, IL) at 40×. Blocking experiments were performed by co-incubation of cells with 50 nM of PSMA-1-MMAE-IR700 and 100× of PSMA-1 ligand. Studies were performed in triplicate.
# [6] = tested on: PSMA-negative PC3flu cells; test: In vitro uptake studies, Example 2, PC3flu; format: cell-based, human; details: 50 nM
# Protocol: as §2
# [7] = Stability in PBS, Example 2; format: physicochemical; details: incubated at 37° C.
# From the text: as §1
compound,measurement,setting,value
CC[C@H](C)[C@@H]([C@@H](CC(=O)N1CCC[C@H]1[C@H](OC)[C@@H](C)C(=O)N[C@H](C)[C@@H](O)c1ccccc1)OC)N(C)C(=O)[C@@H](NC(=O)[C@H](C(C)C)N(C)C(=O)OCc1ccc(NC(=O)[C@H](CCCNC(N)=O)NC(=O)[C@@H](NC(=O)CCCCCN2C(=O)CC(SC[C@H](NC(=O)[C@H](CCC(=O)O)NC(=O)[C@H](CCC(=O)O)NC(=O)[C@H](CCC(=O)O)NC(=O)CCCCCNC(=O)[C@H]3CC[C@H](CNC(=O)CC[C@H](NC(=O)N[C@@H](CCC(=O)O)C(=O)O)C(=O)O)CC3)C(=O)NCCCCCC(=O)N[C@@H](CCCCNC(=O)CCCCCNC(=O)OCCCOc3cccc4c5n6c(c34)=NC3=NC(=Nc4c7ccccc7c(n4[Si]6(O[Si](C)(C)CCC[N+](CCCS(=O)(=O)[O-])(CCCS(=O)(=O)O)CCCS(=O)(=O)O)O[Si](C)(C)CCC[N+](CCCS(=O)(=O)[O-])(CCCS(=O)(=O)O)CCCS(=O)(=O)O)N=C4N=C(N=5)c5ccccc54)c4ccccc43)C(N)=O)C2=O)C(C)C)cc1)C(C)C (stereo partly drawn) [PSMA-1-MMAE-IR700],fluorescence signal in primary tumor and lymph node histology,[1],only observed in cancer tissues
same,cell killing in PC3flu cells,"[2]; 5 nM, with or without light",no effective cell killing
same,"IC50 dark cytotoxicity, PC3flu cells","[2]; 24 h in the dark, no light",no IC50 value was obtained
same,half-life,[3],1030 ± 168 min
same,clearance from the blood,[4],cleared quickly from the blood
same,fluorescence signal (uptake) in PC3pip cells,[5],observed as early as 15 min
same,fluorescence signal in PC3pip cells with 100× of PSMA-1 ligand,[5]; co-incubation,completely blocked
same,fluorescence signal (uptake) in PC3flu cells,[6],no fluorescence signal was observed
same,stability in PBS,[7],stable
